Laboratory results: ChEMBL document CHEMBL1201862, “PubChem BioAssay data set” (2004)
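Five compound concentrations were applied to cells in 96-well plates for 48 hours; endpoints were derived by simple linear interpolation of the resulting dose-response curve. GI50 is the concentration that inhibits growth by half.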 Calls of active or inactive are those of the source. Cut-off read from the data, not from the text of the source: active = GI50 up to about 1.1 µM and inactive = higher.

Tests used:
Experiment in all cases: inhibition of tumour cell growth, NCI panel, 48 h
CAKI-1 = test system: CAKI-1
HCT-15 = test system: HCT-15
HOP-92 = test system: HOP-92
K562 = test system: K562
NCI-H226 = test system: NCI-H226
NCI-H460 = test system: NCI-H460
NCI-H522 = test system: NCI-H522
NCI/ADR-RES = test system: NCI/ADR-RES
OVCAR-3 = test system: OVCAR-3
OVCAR-4 = test system: OVCAR-4
PC-3 = test system: PC-3
SF-539 = test system: SF-539
SK-MEL-5 = test system: SK-MEL-5
SK-OV-3 = test system: SK-OV-3
SN12C = test system: SN12C
SNB-75 = test system: SNB-75
TK-10 = test system: TK-10
U-251 = test system: U-251
UACC-62 = test system: UACC-62
UO-31 = test system: UO-31

Row | SMILES | GI50 (CAKI-1) | GI50 (HCT-15) [µM] | GI50 (HOP-92) | GI50 (K562) | GI50 (NCI-H226) | GI50 (NCI-H460) | GI50 (NCI-H522) | GI50 (NCI/ADR-RES) | GI50 (OVCAR-3) | GI50 (OVCAR-4) | GI50 (PC-3) | GI50 (SF-539) | GI50 (SK-MEL-5) | GI50 (SK-OV-3) | GI50 (SN12C) | GI50 (SNB-75) | GI50 (TK-10) | GI50 (U-251) | GI50 (UACC-62) | GI50 (UO-31)
1 | CNC(=O)N(CCC#N)CCN(C(=O)NC)c1ccccc1 | > 100 µM (inactive) | > 100 | > 100 µM (inactive) | > 100 µM (inactive) | > 100 µM (inactive) | > 100 µM (inactive) | > 100 µM (inactive) | > 100 µM (inactive) | > 100 µM (inactive) | > 100 µM (inactive) | > 100 µM (inactive) | > 100 µM (inactive) | > 100 µM (inactive) | > 100 µM (inactive) | > 100 µM (inactive) | 65 µM (inactive) | > 100 µM (inactive) | > 100 µM (inactive) | > 100 µM (inactive) | > 100 µM (inactive)
2 | COc1ccc(C(=O)N=C2N(c3ccccc3)C(=N/c3ccccc3)/C(=N\c3ccccc3)N2c2ccccc2)cc1 | 39.9 µM (inactive) | > 100 | 2.9 µM (inactive) | > 100 µM (inactive) | 29.9 µM (inactive) | 47.1 µM (inactive) | 30.7 µM (inactive) | > 100 µM (inactive) | > 100 µM (inactive) | 21.9 µM (inactive) | 16.8 µM (inactive) | 35 µM (inactive) | 23.2 µM (inactive) | 33.7 µM (inactive) | > 67.1 µM (inactive) | 7.82 µM (inactive) | 18.5 µM (inactive) | 19.1 µM (inactive) | 37.1 µM (inactive) | > 100 µM (inactive)
3 | CN(C)/C=C/c1nnnn1-c1ccc(I)cc1 | 22.3 µM (inactive) | 13.5 | 14.2 µM (inactive) | 19 µM (inactive) | 22.8 µM (inactive) | 31.1 µM (inactive) | 25.5 µM (inactive) | 23.8 µM (inactive) | 23.6 µM (inactive) | 20.5 µM (inactive) | 16.6 µM (inactive) | 19.5 µM (inactive) | 16.6 µM (inactive) | 18.1 µM (inactive) | 14.9 µM (inactive) | 11.1 µM (inactive) | 30.5 µM (inactive) | 11.9 µM (inactive) | 12.4 µM (inactive) | 17.6 µM (inactive)
4 | NC(CO)C(=O)NCC(=O)O (stereo not given) | > 100 µM (inactive) | > 100 | > 100 µM (inactive) | > 100 µM (inactive) | > 100 µM (inactive) | > 100 µM (inactive) | > 100 µM (inactive) | > 100 µM (inactive) | > 100 µM (inactive) | > 100 µM (inactive) | > 100 µM (inactive) | > 100 µM (inactive) | > 100 µM (inactive) | > 100 µM (inactive) | > 100 µM (inactive) | > 100 µM (inactive) | > 100 µM (inactive) | > 100 µM (inactive) | > 100 µM (inactive) | > 100 µM (inactive)
5 | CN1CCCOC(c2ccc([N+](=O)[O-])cc2)O1 (stereo not given) | > 100 µM (inactive) | > 100 | > 100 µM (inactive) | > 100 µM (inactive) | > 100 µM (inactive) | > 100 µM (inactive) | > 100 µM (inactive) | > 100 µM (inactive) | > 100 µM (inactive) | > 100 µM (inactive) | > 100 µM (inactive) | > 100 µM (inactive) | > 100 µM (inactive) | > 100 µM (inactive) | > 100 µM (inactive) | > 100 µM (inactive) | > 100 µM (inactive) | > 100 µM (inactive) | > 100 µM (inactive) | > 100 µM (inactive)
6 | O=C(O)CCS/C(=C\C(SCCC(=O)O)c1ccc(Cl)cc1)c1ccc(Cl)cc1 (stereo not given) | 37.2 µM (inactive) | 30.8 | 25.8 µM (inactive) | 35.1 µM (inactive) | 69 µM (inactive) | 50.1 µM (inactive) | 33.5 µM (inactive) | > 100 µM (inactive) | 21.6 µM (inactive) | 41.2 µM (inactive) | 61 µM (inactive) | 37.2 µM (inactive) | 48.3 µM (inactive) | > 100 µM (inactive) | 50 µM (inactive) | 78.3 µM (inactive) | 80.7 µM (inactive) | 33.5 µM (inactive) | 18.4 µM (inactive) | 78 µM (inactive)
7 | CCCCCC(/C=C/[C@@H]1CC(=O)C[C@H]1O[Si](C)(C)C(C)(C)C)OCOCCOC (stereo not given in full) | 3.07 µM (inactive) | 3.86 | 1.97 µM (inactive) | 2.4 µM (inactive) | 5.48 µM (inactive) | 17.2 µM (inactive) | 1.93 µM (inactive) | 2.94 µM (inactive) | 3.93 µM (inactive) | 5.56 µM (inactive) | 4.16 µM (inactive) | 2.32 µM (inactive) | 3.33 µM (inactive) | 17 µM (inactive) | 8.43 µM (inactive) | 2.19 µM (inactive) | 12.9 µM (inactive) | 2.52 µM (inactive) | 2.7 µM (inactive) | 2.42 µM (inactive)
8 | CC[C@@H]1CC[C@@H]2[C@H](CC[C@]3(C)[C@@H](OC(C)=O)CC[C@@H]23)[C@H]1COC(C)=O | 29 µM (inactive) | 23.9 | 29 µM (inactive) | 17.6 µM (inactive) | 23.1 µM (inactive) | 19.9 µM (inactive) | 23.1 µM (inactive) | 26.7 µM (inactive) | 17.4 µM (inactive) | 22.5 µM (inactive) | 30.1 µM (inactive) | 24.4 µM (inactive) | 18.3 µM (inactive) | 35.2 µM (inactive) | 22.9 µM (inactive) | 40.6 µM (inactive) | > 100 µM (inactive) | 19.5 µM (inactive) | 18.1 µM (inactive) | > 100 µM (inactive)
9 | Nc1ccc(-c2nc3ccccc3s2)cc1 | 24.2 µM (inactive) | 19.5 | 11.4 µM (inactive) | 21.9 µM (inactive) | 25.3 µM (inactive) | 20.8 µM (inactive) | 20.6 µM (inactive) | 22.6 µM (inactive) | 13.3 µM (inactive) | 14.8 µM (inactive) | 14.9 µM (inactive) | 23 µM (inactive) | 21.6 µM (inactive) | 45.5 µM (inactive) | 19.1 µM (inactive) | 23.8 µM (inactive) | 24.5 µM (inactive) | 17.4 µM (inactive) | 18.4 µM (inactive) | 12.6 µM (inactive)
10 | Cc1nc2cc(/N=N/c3c(C)noc3C)ccc2[nH]1 | 18.9 µM (inactive) | 27.2 | 14.9 µM (inactive) | 35.6 µM (inactive) | > 100 µM (inactive) | 21.8 µM (inactive) | 23.3 µM (inactive) | 28.1 µM (inactive) | 18.1 µM (inactive) | 64.7 µM (inactive) | 27.6 µM (inactive) | 17.6 µM (inactive) | 12.4 µM (inactive) | 18.9 µM (inactive) | 33.6 µM (inactive) | 5.28 µM (inactive) | 22.9 µM (inactive) | 28.4 µM (inactive) | 27 µM (inactive) | 13.9 µM (inactive)
11 | Nc1ncnc2c1ncn2C1C=C(CO)C(O)C1O (stereo not given) | 13.1 µM (inactive) | 0.468 | 7.55 µM (inactive) | 0.0452 µM (active) | 22.4 µM (inactive) | 0.637 µM (active) | 3.99 µM (inactive) | 5.61 µM (inactive) | 5.01 µM (inactive) | 6.24 µM (inactive) | 6.92 µM (inactive) | 4.26 µM (inactive) | 20.3 µM (inactive) | 8.18 µM (inactive) | 7.03 µM (inactive) | 7.55 µM (inactive) | 6.64 µM (inactive) | 10.4 µM (inactive) | 3.56 µM (inactive) | 0.41 µM (active)
